Reference: US20070287699A1, “ANTIVIRAL AGENTS” (ViroBay, Inc., priority 2006, published 2007)
Where two headings read alike, the source gives them in different places.

Tested on: HCV replicon RNA replication in human Huh7 hepatoma cells
Assay: HCV replicon assay (activity levels from either or both of HCV replicon assay 1, Huh7/Clone A RT-qPCR, and assay 2, Huh7 ET luc-ubi-neo/ET)
Assay type: cell-based, Hepatitis C virus (HCV)
Conditions: 48 hours, 72 hours, Luc activity or RT-PCR, read-out: inhibit HCV replication at IC50 levels or estimated IC50 levels
Source text: The HCV replicon assay is a cell-culture system that mimics in vivo HCV replication and provides a system to study HCV replication in vitro. It was created by transfecting cloned viral RNA derived from a consensus HCV genomic sequence into human Huh7 hepatoma cells that are semi-permissive for viral RNA production (Lohmann V., Korner F., Koch J.-O., Herian U., Theilmann L. and Bartenschlager R. (1999). Replication of subgenomic Hepatitis C virus RNAs in a hepatoma cell line. Science 285, 110-113 and Blight K. J., Kolykhalov A. A. and Rice C. M. (2000). Efficient initiation of HCV RNA Replication in cell culture. Science 290, […]). These transfected cell lines contain a subgenomic HCV RNA genome that includes (1) the HCV 5′NTR fused to 12 amino acids of the capsid coding region, (2) the neomycin phosphotransferase gene (Neo) as a selectable marker, (3) the internal ribosome entry site (IRES) from encephalomyocarditis virus (EMCV) that directs translation of HCV non-structural proteins (variously NS2 or NS3 to NS5B), and (4) the 3′ NTR. Replicon-containing cells autonomously and persistently replicate HCV RNA that can be measured quantitatively by real-time qPCR. Therefore, the replicon system facilitates quantitative assessment of anti-viral activity by monitoring changes in HCV RNA replication in a cell-based assay.
HCV replicon-containing cells (Huh7/Clone A) were routinely maintained in Clone A growth medium (DMEM medium [Invitrogen], supplemented with 10% Fetal Bovine Serum, 1% Non Essential Amino Acids and 1 g/L G418). Test compounds were dissolved in dimethyl sulfoxide (DMSO) to make 200× stock solutions for all doses prior to treatment.
For the HCV replicon assay, Huh7/Clone A cells were trypsinized from culture flasks, seeded in 1 ml of Clone A growth medium without G418 at 4×10^4 cells per well in 24-well plates and incubated at 37° C. in a humidified CO2 (5%) incubator overnight. Following overnight incubation, compound solutions were added into wells in the same volume (5 μl of 200× compound stock per well) to give a final DMSO concentration of 0.5%. Three wells on each plate supplemented with 5 μl of DMSO served as untreated controls. For IC50 determinations, compounds were tested at 7 serial dilutions in triplicates from the starting stock solutions. The plates were incubated at 37° C. for 48 hours. After incubation, cells were harvested, transferred to 96-well plates, and subjected to total RNA extraction using the RNA Isolation Kit (RNeasy 96, Qiagen) according to the protocol described by the manufacture's RNeasy 96 Handbook (Qiagen).
Total RNA eluted in 130 μl of RNase-free dH2O was quantitated by the RiboGreen Assay according to the supplier's protocol (Molecular Probe). Briefly, 5 μl of RNA samples were aliquoted in duplicate to a 96-well black microplate and a 96-well TaqMan Optical plate. RNA samples in the black microplate were mixed with 95 μl of diluted RiboGreen:reagent (1:250 dilution in TE buffer) and sample fluorescence was measured using a fluorescence microplate reader at standard fluorescein wavelengths (excitation ˜480 nm, emission ˜520 nm). Ribosomal RNA (Molecular Probe) was used as standard.
TaqMan quantitative PCR (RT-qPCR) was used to quantitate the amount of HCV replicon RNA in each sample. The RT-qPCR reactions were performed in 25 μl on an ABI PRISM 7900 HT Sequence Detection System (Applied Biosystems). The reaction mixture contained 5 μl of total RNA (10-100 ng), 1× TaqMan Buffer A (Applied Biosystems), 5.5 mM MgCl2, 1.2 mM dNTP mix, 0.625 U of AmpliTaq Gold (Applied Biosystems), 5 U of MMLV reverse transcriptase (Promega), 5 U of rRNasin (Promega), 300 nM each of the forward and reverse primers, and 100 nM TaqMan MGB probe. Primers and probe were designed to hybridize to a portion of the neomycin resistance gene (neo) in the replicon and the sequences are as follows: forward primer 5′-GGCTACCTGCCCATTCGA-3′; reverse primer 5′-CCGGCTTCCATCCGAGTAC-3′; MGB probe 5′-CCACCAAGCGAAACA-3′. […]

[1] = Hepatitis C virus, Huh-7, either or both HCV replicon assays: Huh7/Clone A
[2] = either or both HCV replicon assays: Huh7/Clone A

Row | SMILES | IC50 [1] | IC50 [2]
1 | CNc1cc2c(cc1F)c(=O)c(-c1noc(Cc3ccccc3)n1)cn2Cc1ccc(C(F)(F)F)cc1F [Compound 55, 3-(5-Benzyl-[1,2,4]oxadiazol-3-yl)-6-fluoro-1-(2-fluoro-4-trifluoromethyl-benzyl)-7-methylamino-1H-quinolin-4-one] | > 10 µM | 
2 | CN1CCN(c2cc3c(cc2F)c(=O)c(-c2noc(Cc4ccccc4)n2)cn3Cc2ccc(Cl)nc2)CC1 [Compound 65, 3-(5-benzyl-[1,2,4]oxadiazol-3-yl)-1-(6-chloro-pyridin-3-ylmethyl)-6-fluoro-7-(4-methyl-piperazin-1-yl)-1H-quinolin-4-one] | < 10 µM | 
3 | O=C1CN(c2cc3c(cc2F)c(=O)c(-c2noc(Cc4ccc(F)cc4)n2)cn3Cc2ccc(C(F)(F)F)cc2F)CCN1 [Compound 87, 6-fluoro-3-[5-(4-fluoro-benzyl)-[1,2,4]oxadiazol-3-yl]-1-(2-fluoro-4-trifluoromethyl-benzyl)-7-(3-oxo-piperazin-1-yl)-1H-quinolin-4-one] | < 0.5 µM | 
4 | CN1CCN(c2cc3c(cc2F)c(=O)c(-c2noc(Cc4ccc(F)cc4F)n2)cn3Cc2ccc(Cl)cc2)CC1 [Compound 32, 1-(4-chloro-benzyl)-3-[5-(2,4-difluoro-benzyl)-[1,2,4]oxadiazol-3-yl]-6-fluoro-7-(4-methyl-piperazin-1-yl)-1H-quinolin-4-one] | > 10 µM | 
5 | O=c1c(-c2noc(Cc3ccccc3)n2)cn(Cc2ccc(Cl)cc2)c2ccc(O)cc12 [Compound 12, 3-(5-benzyl-[1,2,4]oxadiazol-3-yl)-1-(4-chloro-benzyl)-6-hydroxy-1H-quinolin-4-one] | < 10 µM | 
6 | CN1CCN(c2cc3c(cc2F)c(=O)c(-c2noc(CN4CCCC4)n2)cn3Cc2ccc(Cl)cc2)CC1 [Compound 54, 1-(4-chloro-benzyl)-6-fluoro-7-(4-methyl-piperazin-1-yl)-3-(5-pyrrolidin-1-ylmethyl-[1,2,4]oxadiazol-3-yl)-1H-quinolin-4-one] | > 10 µM | 
7 | CN1CCN(c2cc3c(cc2F)c(=O)c(-c2noc(Cc4cc(F)cc(F)c4)n2)cn3Cc2ccc(Cl)cc2)CC1 [Compound 46, 1-(4-chloro-benzyl)-3-[5-(3,5-difluoro-benzyl)-[1,2,4]oxadiazol-3-yl]-6-fluoro-7-(4-methyl-piperazin-1-yl)-1H-quinolin-4-one] | < 10 µM | 
8 | CN1CCN(c2cc3c(cc2F)c(=O)c(-c2noc(Cc4ccc(F)cc4)n2)cn3Cc2c(F)cccc2Cl)CC1 [Compound 42, 1-(2-chloro-6-fluoro-benzyl)-6-fluoro-3-[5-(4-fluoro-benzyl)-[1,2,4]oxadiazol-3-yl]-7-(4-methyl-piperazin-1-yl)-1H-quinolin-4-one] | < 10 µM | 
9 | CN1CCN(c2cc3c(cc2F)c(=O)c(-c2noc(Cc4ccccc4)n2)cn3Cc2ccc(C(F)(F)F)cc2F)CC1 [Compound 35, 3-(5-benzyl-[1,2,4]oxadiazol-3-yl)-6-fluoro-1-(2-fluoro-4-trifluoromethyl-benzyl)-7-(4-methyl-piperazin-1-yl)-1H-quinolin-4-one] |  | < 2 µM
10 | CC(C)(c1ccc(F)cc1)c1nc(-c2cn(Cc3ccc(F)cc3)c3cc(F)c(F)cc3c2=O)no1 [Compound 155, 6,7-difluoro-1-(4-fluorobenzyl)-3-(5-(2-(4-fluorophenyl)propan-2-yl)-1,2,4-oxadiazol-3-yl)quinolin-4(1H)-one] | > 10 µM | 
11 | CN1CCN(c2cc3c(cc2F)c(=O)c(-c2noc(Cc4ccc(F)cc4)n2)cn3Cc2ccccc2F)CC1 [Compound 47, 6-fluoro-3-[5-(4-fluoro-benzyl)-[1,2,4]oxadiazol-3-yl]-1-(2-fluoro-benzyl)-7-(4-methyl-piperazin-1-yl)-1H-quinolin-4-one] | < 10 µM | 
12 | COc1ccc(Cn2cc(-c3noc(C(C)(C)c4ccc(F)cc4)n3)c(=O)c3cc(F)c(N4CCOCC4)cc32)cc1 [Compound 130, 6-fluoro-3-(5-(2-(4-fluorophenyl)propan-2-yl)-1,2,4-oxadiazol-3-yl)-1-(4-methoxybenzyl)-7-morpholinoquinolin-4(1H)-one] | < 2 µM | 
13 | CN1CCN(c2cc3c(cc2F)c(=O)c(-c2noc(C(C)(C)c4ccccc4)n2)cn3C2(c3ccc(C(F)(F)F)cc3)CC2)CC1 [Compound 96, 6-fluoro-3-[5-(1-methyl-1-phenyl-ethyl)-[1,2,4]oxadiazol-3-yl]-7-(4-methyl-piperazin-1-yl)-1-[1-(4-trifluoromethyl-phenyl)-cyclopropyl]-1H-quinolin-4-one] | < 0.5 µM | 
14 | O=c1c(-c2noc(Cc3ccccc3)n2)cn(Cc2ccc(C(F)(F)F)cc2)c2cc(NCCOCCO)c(F)cc12 [Compound 73, 3-(5-benzyl-[1,2,4]oxadiazol-3-yl)-6-fluoro-7-[2-(2-hydroxy-ethoxy)-ethylamino]-1-(4-trifluoromethyl-benzyl)-1H-quinolin-4-one] | < 10 µM | 
15 | CN1CCN(c2cc3c(cc2F)c(=O)c(-c2noc(C(CCCC(N)=O)c4ccccc4)n2)cn3Cc2ccc(C(F)(F)F)cc2F)CC1 (centres unmarked) [Compound 89, 5-{3-[6-fluoro-1-(2-fluoro-4-trifluoromethyl-benzyl)-7-(4-methyl-piperazin-1-yl)-4-oxo-1,4-dihydro-quinolin-3-yl]-[1,2,4]oxadiazol-5-yl}-5-phenyl-pentanamide] | < 0.5 µM | 
16 | CN1CCN(c2cc3c(cc2F)c(=O)c(-c2noc(Cc4ccccc4)n2)cn3Cc2ccc(C(F)(F)F)cc2F)CC1 [Compound 16, 3-(5-benzyl-[1,2,4]oxadiazol-3-yl)-6-fluoro-1-(2-fluoro-4-trifluoromethyl-benzyl)-7-(4-methyl-piperazin-1-yl)-1H-quinolin-4-one] |  | < 0.5 µM
17 | O=c1c(-c2noc(Cc3ccccc3)n2)cn(Cc2ccc(C(F)(F)F)cc2F)c2cc(-n3ccnc3)c(F)cc12 [Compound 56, 3-(5-benzyl-[1,2,4]oxadiazol-3-yl)-6-fluoro-1-(2-fluoro-4-trifluoromethyl-benzyl)-7-imidazol-1-yl-1H-quinolin-4-one] | < 2 µM | 
18 | CN1CCN(c2cc3c(cc2F)c(=O)c(-c2noc(C(CCCCNC(=O)OC(C)(C)C)c4ccccc4)n2)cn3Cc2ccc(Cl)cc2)CC1 (centres unmarked) [Compound 86, tert-butyl (5-{3-[1-(4-chloro-benzyl)-6-fluoro-7-(4-methyl-piperazin-1-yl)-4-oxo-1,4-dihydro-quinolin-3-yl]-[1,2,4]oxadiazol-5-yl}-5-phenyl-pentyl)-carbamate] | < 10 µM | 
19 | CN1CCN(c2cc3c(cc2F)c(=O)c(-c2noc(Cc4ccccc4)n2)cn3CCN2CCOCC2)CC1 [Compound 59, 3-(5-benzyl-[1,2,4]oxadiazol-3-yl)-6-fluoro-7-(4-methyl-piperazin-1-yl)-1-(2-morpholin-4-yl-ethyl)-1H-quinolin-4-one] | > 10 µM | 
20 | O=c1c(-c2noc(Cc3ccc(Cl)cc3)n2)cn(Cc2ccc(C(F)(F)F)cc2F)c2c1CNCC2 [Compound 178, 3-[5-(4-chloro-benzyl)-[1,2,4]oxadiazol-3-yl]-1-(2-fluoro-4-trifluoromethyl-benzyl)-5,6,7,8-tetrahydro-1H-[1,6]naphthyridin-4-one] | < 10 µM | 
